Data: patent publication US10800791B2, “Triazole ACC inhibitors and uses thereof” (Gilead Apollo, LLC, priority 2015, dated 2020)
Values after ≈ are worked out from the molar mass of the structure shown. Read-outs that look alike come from different tables or passages of the source.

Columns and labels:
[1] = system: Diplodia maydis (Dm); assay: Growth inhibition assay of fungal pathogens, Dm; format: cell-based; conditions: Stenocarpella maydis, 48 h, growth inhibition at 48 hours vs 2% DMSO control
Protocol: (§1) Compounds of the present invention were evaluated in a growth inhibition assay to determine the ability to control the growth of fungal pathogens, such as Botrtyis cinerea (Bc), Collectotrichum graminicola (Cg), Diplodia maydis (Dm), Fusarium moniliforme (Fm), Fusarium virguliforme (Fv), Phytophthora capsici (Pc), Rhizoctonia solani (Rs), and Septoria tritici (St).
(§2) Compounds to be tested were dissolved in DMSO at 2.5 mg/ml to produce compound stock solutions (“stocks”). Stocks were diluted with DMSO by a five-fold dilution in a 96-well stock plate, and two sets of final concentrations of 50, 10, and 2 ppm or 2, 0.4, and 0.08 ppm were obtained in vitro. A set of positive controls was also prepared, with various concentrations of Soraphen (2, 0.4, and 0.08 ppm), Metalaxyl (1.1, 0.22, and 0.04 ppm), and Metconazole (2, 0.4, and 0.08 ppm or 0.2, 0.04, and 0.008 ppm) after the five-fold dilutions. Negative controls on each plate included 2% DMSO, water, and a blank (media+2% DMSO).
(§3) Fungal spores were isolated from previously sub-cultured plates of Botrtyis cinerea (Bc), Collectotrichum graminicola (Cg), Diplodia maydis (Dm), Fusarium moniliforme (Fm), Fusarium virguliforme (Fv), Phytophthora capsici (Pc), and Septoria tritici (St). The isolated spores were diluted to individual concentrations with a 17% V8 liquid media. For Rhizoctonia solani (Rs) and Pythium irregulare, 1.5 mm mycelial plugs were used in place of spores and/4 Potato Dextrose Broth (PDB) was used for dilution. The spore concentrations and plug sizes were based on growth curves generated at 48 hours for each pathogen.
(§4) In a second 96-well plate, the spores or mycelial plugs, media, diluted compound solutions, and controls were combined. Once the compound was added, a true final concentration of compound in each well was measured by an OD600 reading, which adjusted for any compound precipitation that might have occurred in the well. Plate readings were repeated at both 24 and 48 hours. The blank negative control was used as a background subtraction. Additional visual ratings were performed at both 24 and 48 hours for checking on precipitation and confirming efficacy. Visual and OD600 ratings of the compounds at 48 hours were compared to the 2% DMSO negative control, and the percent of pathogen growth inhibition was determined based on those values.

[2] = target: human (hACC2) (Homo sapiens, UniProt O00763); assay: In vitro ACC inhibition assay (ADP-Glo), hACC2; format: biochemical; conditions: 5 nM ACC2, 20 μM ATP, 20 μM acetyl-CoA
Protocol: The detailed procedure is as follows. […] 10 μL ADP glo reagent was added. […] 20 μL kinase detection reagent was added.

[3] = system: C. krusei; assay: Antifungal Activity Assay (broth microtiter MIC), C. krusei; format: cell-based, Candida krusei; conditions: Pichia kudriavzevii, ATCC6258, 48 h
Summary of the method: (§5)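 Endpoint: lowest concentration visibly inhibiting growth relative to control after 48 h. Inoculum of 2.5×10^3 CFU/mL final in RPMI 1640+MOPS, prepared from overnight 35° C agar cultures; test compounds diluted in water to 128 μg/mL before plating.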

[4] = system: Rhizoctonia solani (Rs); assay: Growth inhibition assay of fungal pathogens, Rs; format: cell-based; conditions: 48 h
[5] = system: Fusarium moniliforme (Fm); assay: Growth inhibition assay of fungal pathogens, Fm; format: cell-based; conditions: Fusarium verticillioides, 48 h, read-out: Concentration at 90% Inhibition Fm
Protocol: as §1, §2, §3, §4

[6] = system: Botrtyis cinerea (Bc); assay: Growth inhibition assay of fungal pathogens, Bc; format: cell-based; conditions: 48 h, growth inhibition at 48 hours vs 2% DMSO control
Protocol: as §1, §2, §3, §4

[7] = system: C. albicans; assay: Antifungal Activity Assay (broth microtiter MIC), C. albicans; format: cell-based, Candida albicans; conditions: Candida albicans, ATCC90028, 48 h
Summary of the method: as §5

[8] = system: Phytophthora capsici (Pc); assay: Growth inhibition assay of fungal pathogens, Pc; format: cell-based; conditions: 48 h
Protocol: as §1, §2, §3, §4

[9] = system: C. parapsilosis; assay: Antifungal Activity Assay (broth microtiter MIC), C. parapsilosis; format: cell-based, Candida parapsilosis; conditions: Lodderomyces parapsilosis, ATCC22019, 48 h
Summary of the method: as §5

[10] = system: Collectotrichum graminicola (Cg); assay: Growth inhibition assay of fungal pathogens, Cg; format: cell-based; conditions: 48 h, growth inhibition at 48 hours vs 2% DMSO control
Protocol: as §1, §2, §3, §4

[11] = system: Septoria tritici (St); assay: Growth inhibition assay of fungal pathogens, St; format: cell-based; conditions: Zymoseptoria tritici, 48 h, growth inhibition at 48 hours vs 2% DMSO control
Protocol: as §1, §2, §3, §4

[12] = system: Fusarium virguliforme (Fv); assay: Growth inhibition assay of fungal pathogens, Fv; format: cell-based; conditions: 48 h
Protocol: as §1, §2, §3, §4

[13] = target: fungal (fACC2) (UniProt Q00955); conditions: read-out: fACC2 (in vitro ACC2 Inhibition Assay, IC50), ADP-Glo, 5 nM ACC2, 20 μM ATP, 20 μM acetyl-CoA
[14] = Diplodia maydis, read-out: Concentration at 90% Inhibition Dm
[15] = Table 3a, ATCC 6258, 3 replicates, MIC recorded at 48 h, read-out: MIC, C. krusei ATCC 6258
[16] = Table 3b (additional results), ATCC 6258, 3 replicates, MIC recorded at 48 h, read-out: MIC, C. krusei ATCC 6258
[17] = mycelial plugs, growth inhibition at 48 hours vs 2% DMSO control, read-out: Concentration at 90% Inhibition Rs
[18] = Fusarium moniliforme, growth inhibition at 48 hours vs 2% DMSO control
[19] = Botrtyis cinerea, read-out: Concentration at 90% Inhibition Bc
[20] = Table 3a, ATCC 90028, 3 replicates, MIC recorded at 48 h, read-out: MIC, C. albicans ATCC 90028
[21] = Table 3b (additional results), ATCC 90028, 3 replicates, MIC recorded at 48 h, read-out: MIC, C. albicans ATCC 90028
[22] = growth inhibition at 48 hours vs 2% DMSO control, read-out: Concentration at 90% Inhibition Pc
[23] = Table 3a, ATCC 22019, 3 replicates, MIC recorded at 48 h, read-out: MIC, C. parapsilosis ATCC 22019
[24] = Table 3b (additional results), ATCC 22019, 3 replicates, MIC recorded at 48 h, read-out: MIC, C. parapsilosis ATCC 22019
[25] = Collectotrichum graminicola, read-out: Concentration at 90% Inhibition Cg
[26] = Septoria tritici, read-out: Concentration at 90% Inhibition St
[27] = growth inhibition at 48 hours vs 2% DMSO control, read-out: Concentration at 90% Inhibition Fv

Sequence of human (hACC2) (O00763 whole entry): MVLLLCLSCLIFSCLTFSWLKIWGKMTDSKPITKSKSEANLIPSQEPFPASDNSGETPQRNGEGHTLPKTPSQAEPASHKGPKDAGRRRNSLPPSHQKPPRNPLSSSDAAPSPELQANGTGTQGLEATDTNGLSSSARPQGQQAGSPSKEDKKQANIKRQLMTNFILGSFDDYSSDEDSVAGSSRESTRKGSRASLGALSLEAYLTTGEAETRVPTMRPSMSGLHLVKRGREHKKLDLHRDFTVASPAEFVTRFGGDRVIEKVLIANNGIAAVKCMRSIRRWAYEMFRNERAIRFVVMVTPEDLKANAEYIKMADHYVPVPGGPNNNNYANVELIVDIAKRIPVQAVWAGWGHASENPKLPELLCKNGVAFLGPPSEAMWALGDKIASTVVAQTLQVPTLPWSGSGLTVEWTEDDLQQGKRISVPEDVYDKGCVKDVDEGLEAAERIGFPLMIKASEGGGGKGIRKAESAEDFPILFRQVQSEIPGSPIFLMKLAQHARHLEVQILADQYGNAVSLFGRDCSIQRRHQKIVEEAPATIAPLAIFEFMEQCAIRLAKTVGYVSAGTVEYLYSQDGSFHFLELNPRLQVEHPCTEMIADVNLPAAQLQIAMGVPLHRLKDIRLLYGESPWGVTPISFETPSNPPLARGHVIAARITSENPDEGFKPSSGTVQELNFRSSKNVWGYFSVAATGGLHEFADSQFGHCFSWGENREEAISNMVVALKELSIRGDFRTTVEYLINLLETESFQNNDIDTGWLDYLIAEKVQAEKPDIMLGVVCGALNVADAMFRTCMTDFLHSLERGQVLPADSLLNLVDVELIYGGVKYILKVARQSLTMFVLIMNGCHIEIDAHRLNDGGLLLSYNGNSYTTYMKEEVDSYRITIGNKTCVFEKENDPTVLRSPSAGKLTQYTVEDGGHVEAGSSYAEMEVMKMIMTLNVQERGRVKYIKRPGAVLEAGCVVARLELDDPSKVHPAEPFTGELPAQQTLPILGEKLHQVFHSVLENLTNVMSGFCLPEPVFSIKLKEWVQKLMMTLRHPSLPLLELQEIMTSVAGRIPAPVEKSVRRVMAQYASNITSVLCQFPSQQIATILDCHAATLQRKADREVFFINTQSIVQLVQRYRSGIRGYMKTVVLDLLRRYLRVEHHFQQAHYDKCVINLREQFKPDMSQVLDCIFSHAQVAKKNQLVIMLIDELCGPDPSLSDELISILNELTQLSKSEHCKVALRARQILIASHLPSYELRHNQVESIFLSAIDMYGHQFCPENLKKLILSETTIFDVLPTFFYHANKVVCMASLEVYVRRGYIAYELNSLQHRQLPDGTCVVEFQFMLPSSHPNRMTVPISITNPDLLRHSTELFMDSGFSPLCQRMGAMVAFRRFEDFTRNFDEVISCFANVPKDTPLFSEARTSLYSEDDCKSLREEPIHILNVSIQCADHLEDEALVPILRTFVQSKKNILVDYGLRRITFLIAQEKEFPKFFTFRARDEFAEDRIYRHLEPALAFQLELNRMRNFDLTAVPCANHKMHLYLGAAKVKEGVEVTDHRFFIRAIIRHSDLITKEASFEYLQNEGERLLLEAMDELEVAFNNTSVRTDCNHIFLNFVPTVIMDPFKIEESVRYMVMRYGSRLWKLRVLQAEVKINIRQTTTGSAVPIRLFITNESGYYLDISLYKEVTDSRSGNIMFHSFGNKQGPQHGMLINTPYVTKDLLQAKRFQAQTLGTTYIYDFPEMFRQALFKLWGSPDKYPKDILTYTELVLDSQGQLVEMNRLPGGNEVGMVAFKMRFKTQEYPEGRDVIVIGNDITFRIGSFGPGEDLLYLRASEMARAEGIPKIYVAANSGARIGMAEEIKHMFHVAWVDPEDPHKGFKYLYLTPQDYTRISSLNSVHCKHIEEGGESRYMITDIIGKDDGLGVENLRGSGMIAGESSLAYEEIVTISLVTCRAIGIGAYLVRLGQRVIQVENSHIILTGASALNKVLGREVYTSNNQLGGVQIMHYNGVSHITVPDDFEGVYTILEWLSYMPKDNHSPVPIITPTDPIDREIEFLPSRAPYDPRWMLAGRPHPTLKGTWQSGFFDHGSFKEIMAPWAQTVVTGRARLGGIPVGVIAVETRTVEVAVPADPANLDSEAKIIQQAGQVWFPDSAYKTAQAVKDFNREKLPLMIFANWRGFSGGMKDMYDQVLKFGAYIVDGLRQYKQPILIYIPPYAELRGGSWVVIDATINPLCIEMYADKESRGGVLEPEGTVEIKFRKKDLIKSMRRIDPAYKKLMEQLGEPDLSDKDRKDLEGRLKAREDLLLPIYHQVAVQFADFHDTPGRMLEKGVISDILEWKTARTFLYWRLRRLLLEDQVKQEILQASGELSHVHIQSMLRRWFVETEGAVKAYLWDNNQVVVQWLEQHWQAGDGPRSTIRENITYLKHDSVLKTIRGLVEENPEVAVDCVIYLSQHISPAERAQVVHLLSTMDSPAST
Sequence of fungal (fACC2) (Q00955 whole entry): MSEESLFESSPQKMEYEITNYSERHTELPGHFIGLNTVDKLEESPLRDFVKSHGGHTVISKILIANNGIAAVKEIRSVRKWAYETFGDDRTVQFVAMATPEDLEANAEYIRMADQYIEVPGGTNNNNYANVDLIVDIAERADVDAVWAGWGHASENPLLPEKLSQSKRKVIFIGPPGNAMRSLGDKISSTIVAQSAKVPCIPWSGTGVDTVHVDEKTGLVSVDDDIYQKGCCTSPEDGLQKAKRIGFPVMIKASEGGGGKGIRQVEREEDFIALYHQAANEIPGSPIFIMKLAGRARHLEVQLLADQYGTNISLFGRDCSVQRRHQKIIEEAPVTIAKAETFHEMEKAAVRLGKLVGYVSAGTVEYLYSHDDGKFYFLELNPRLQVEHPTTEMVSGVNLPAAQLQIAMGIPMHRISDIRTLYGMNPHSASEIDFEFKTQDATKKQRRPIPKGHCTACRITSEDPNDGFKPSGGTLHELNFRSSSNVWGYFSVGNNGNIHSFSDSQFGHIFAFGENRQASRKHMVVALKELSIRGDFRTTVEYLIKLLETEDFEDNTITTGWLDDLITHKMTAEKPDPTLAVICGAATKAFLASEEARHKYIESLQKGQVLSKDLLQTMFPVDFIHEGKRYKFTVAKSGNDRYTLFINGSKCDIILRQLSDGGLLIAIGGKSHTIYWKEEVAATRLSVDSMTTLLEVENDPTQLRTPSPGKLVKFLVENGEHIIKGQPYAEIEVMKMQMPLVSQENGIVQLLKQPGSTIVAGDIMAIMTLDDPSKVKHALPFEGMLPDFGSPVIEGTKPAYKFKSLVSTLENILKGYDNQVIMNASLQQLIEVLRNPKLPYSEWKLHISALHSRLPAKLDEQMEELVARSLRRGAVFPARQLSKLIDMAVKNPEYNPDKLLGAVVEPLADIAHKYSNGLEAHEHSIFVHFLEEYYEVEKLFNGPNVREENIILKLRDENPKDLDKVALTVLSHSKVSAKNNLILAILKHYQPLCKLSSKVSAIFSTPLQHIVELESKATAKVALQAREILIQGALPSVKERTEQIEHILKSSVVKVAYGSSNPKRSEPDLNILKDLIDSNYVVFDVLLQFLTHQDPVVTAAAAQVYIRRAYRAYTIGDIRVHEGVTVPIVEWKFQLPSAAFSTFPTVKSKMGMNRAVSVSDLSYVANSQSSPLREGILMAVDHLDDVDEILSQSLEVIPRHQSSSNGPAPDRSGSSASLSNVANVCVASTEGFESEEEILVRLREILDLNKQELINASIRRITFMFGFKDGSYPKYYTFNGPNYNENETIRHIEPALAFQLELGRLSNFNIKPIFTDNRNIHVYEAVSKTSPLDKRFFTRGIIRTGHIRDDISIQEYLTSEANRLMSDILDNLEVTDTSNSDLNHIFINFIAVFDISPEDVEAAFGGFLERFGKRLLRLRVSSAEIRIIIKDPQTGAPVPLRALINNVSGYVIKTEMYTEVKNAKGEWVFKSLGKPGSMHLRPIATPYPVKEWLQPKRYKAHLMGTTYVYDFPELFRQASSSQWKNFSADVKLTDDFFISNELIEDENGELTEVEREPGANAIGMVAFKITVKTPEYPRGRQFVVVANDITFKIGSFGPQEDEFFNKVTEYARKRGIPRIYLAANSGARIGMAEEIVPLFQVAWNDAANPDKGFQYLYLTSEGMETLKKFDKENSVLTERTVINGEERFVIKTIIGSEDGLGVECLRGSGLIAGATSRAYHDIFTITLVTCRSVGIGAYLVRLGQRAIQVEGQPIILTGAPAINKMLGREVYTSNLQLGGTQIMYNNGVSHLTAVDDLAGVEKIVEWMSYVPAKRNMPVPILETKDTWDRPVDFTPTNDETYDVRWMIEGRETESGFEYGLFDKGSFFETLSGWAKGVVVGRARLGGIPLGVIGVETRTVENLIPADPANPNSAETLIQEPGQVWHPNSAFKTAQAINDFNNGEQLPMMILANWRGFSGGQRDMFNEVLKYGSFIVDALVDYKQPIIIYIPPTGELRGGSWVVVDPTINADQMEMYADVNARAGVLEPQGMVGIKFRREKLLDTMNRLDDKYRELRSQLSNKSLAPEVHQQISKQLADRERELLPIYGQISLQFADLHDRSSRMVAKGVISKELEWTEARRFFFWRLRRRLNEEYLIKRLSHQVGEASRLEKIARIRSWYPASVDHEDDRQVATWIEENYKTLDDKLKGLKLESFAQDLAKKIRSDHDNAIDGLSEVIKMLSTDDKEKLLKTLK

SMILES | IC90 [1, 14] [µg/mL] | IC50 ([2]; Table 2a) [nM] | IC50 ([2]; Table 2b, additional results) [nM] | MIC [3, 15] [µg/mL] | MIC [3, 16] [µg/mL] | IC90 [4, 17] [µg/mL] | IC90 [5, 18] [µg/mL] | IC90 [6, 19] [µg/mL] | MIC [7, 20] [µg/mL] | MIC [7, 21] [µg/mL] | IC90 [8, 22] [µg/mL] | MIC [9, 23] [µg/mL] | MIC [9, 24] [µg/mL] | IC90 [10, 25] [µg/mL] | IC90 [11, 26] [µg/mL] | IC90 [12, 27] [µg/mL] | IC50 ([13]; Table 2a) [nM] | IC50 ([13]; Table 2b, additional results) [nM] | further results
CCc1ccc(F)cc1[C@H](Cn1c(=O)n(C(C)(C)C(=O)NC(C)C)c(=O)c2c(C)c(-n3nccn3)sc21)OCCO [Compound I-124] | 0.4 (≈ 0.682 µM) | 1 to 5 | 1 to 5 | 0.06 to 0.24 (≈ 0.102 to 0.409 µM) | 2.01 to 4 (≈ 3.43 to 6.82 µM) | 0.08 (≈ 0.136 µM) | 0.08 (≈ 0.136 µM) | 0.4 (≈ 0.682 µM) | 0.25 to 1 (≈ 0.426 to 1.7 µM) | 2.01 to 4 (≈ 3.43 to 6.82 µM) | 10 (≈ 17 µM) | 0.25 to 1 (≈ 0.426 to 1.7 µM) | 2.01 to 4 (≈ 3.43 to 6.82 µM) | 0.08 (≈ 0.136 µM) | 2 (≈ 3.41 µM) | 0.08 (≈ 0.136 µM) | 0.4 to 1 | 0.3 to 1 | 
CCc1ccc(F)cc1[C@H](Cn1c(=O)n(C(C)(C)C(=O)NC(C)C)c(=O)c2c(C)c(-n3nccn3)sc21)OCCOC [Compound I-126] | 2 (≈ 3.33 µM) | 5 to 10 | 5 to 10 | 0.25 to 1 (≈ 0.416 to 1.66 µM) | > 4.01 | 2 (≈ 3.33 µM) | 0.08 (≈ 0.133 µM) | 0.4 (≈ 0.666 µM) | 1.1 to 2 (≈ 1.83 to 3.33 µM) | > 4.01 | > 50 | 1.1 to 2 (≈ 1.83 to 3.33 µM) | 2.01 to 4 (≈ 3.35 to 6.66 µM) | 0.4 (≈ 0.666 µM) | 10 (≈ 16.6 µM) | 0.4 (≈ 0.666 µM) | 1 to 5 | 1 to 5 | 
COc1ccccc1[C@H](Cn1c(=O)n(C(C)(C)C(=O)NC(C)C)c(=O)c2c(C)c(-n3nccn3)sc21)OCCC#N [Compound I-136, 2-[1-[(2R)-2-(2-cyanoethoxy)-2-(2-methoxyphenyl)ethyl]-5-methyl-2,4-dioxo-6-(2H-1,2,3-triazol-2-yl)-1H,2H,3H,4H-thieno[2,3-d]pyrimidin-3-yl]-2-methyl-N-(propan-2-yl)propanamide] |  | 5 to 10 | 5 to 10 |  |  |  |  |  |  |  |  |  |  |  |  |  | 1 to 5 | 0.3 to 1 | IC90 ([1]; read-out: Concentration at 90% Inhibition Dm, Diplodia maydis): 0.08 µg/mL (≈ 0.138 µM); MIC ([3]; read-out: MIC, C. krusei ATCC 6258, Table 3a, 3 replicates, MIC recorded at 48 h): 0.06 to 0.24 µg/mL (≈ 0.104 to 0.414 µM); MIC ([3]; read-out: MIC, C. krusei ATCC 6258, Table 3b (additional results), 3 replicates, MIC recorded at 48 h): 0.25 to 1 µg/mL (≈ 0.431 to 1.73 µM); IC90 ([4]; read-out: Concentration at 90% Inhibition Rs, Rhizoctonia solani, mycelial plugs, growth inhibition at 48 hours vs 2% DMSO control): 0.08 µg/mL (≈ 0.138 µM); IC90 [5]: 0.08 µg/mL (≈ 0.138 µM); IC90 ([6]; read-out: Concentration at 90% Inhibition Bc, Botrtyis cinerea): 0.08 µg/mL (≈ 0.138 µM); MIC ([7]; read-out: MIC, C. albicans ATCC 90028, Table 3a, 3 replicates, MIC recorded at 48 h): 0.25 to 1 µg/mL (≈ 0.431 to 1.73 µM); MIC ([7]; read-out: MIC, C. albicans ATCC 90028, Table 3b (additional results), 3 replicates, MIC recorded at 48 h): 1.01 to 2 µg/mL (≈ 1.74 to 3.45 µM); IC90 ([8]; read-out: Concentration at 90% Inhibition Pc, Phytophthora capsici, growth inhibition at 48 hours vs 2% DMSO control): 2 µg/mL (≈ 3.45 µM); MIC ([9]; read-out: MIC, C. parapsilosis ATCC 22019, Table 3a, 3 replicates, MIC recorded at 48 h): 0.25 to 1 µg/mL (≈ 0.431 to 1.73 µM); MIC ([9]; read-out: MIC, C. parapsilosis ATCC 22019, Table 3b (additional results), 3 replicates, MIC recorded at 48 h): 0.25 to 1 µg/mL (≈ 0.431 to 1.73 µM); IC90 ([10]; read-out: Concentration at 90% Inhibition Cg, Collectotrichum graminicola): 0.08 µg/mL (≈ 0.138 µM); IC90 ([11]; read-out: Concentration at 90% Inhibition St, Septoria tritici): 2 µg/mL (≈ 3.45 µM); IC90 ([12]; read-out: Concentration at 90% Inhibition Fv, Fusarium virguliforme, growth inhibition at 48 hours vs 2% DMSO control): 0.4 µg/mL (≈ 0.69 µM)
